Data reported in patent US20230416329A1, “A PEPTIDE WITH DISULFIDE BONDS AND INHIBITORY ACTIVITY AGAINST SERINE PROTEASES, DERIVED HYBRID PEPTIDES THEREOF, AND USES THEREOF” (INSTITUTE OF MATERIA MEDICA , CHINESE ACADEMY OF MEDICAL …, priority 2020, published 2023).
Blank lines part the entries; values can stand above or below the compound they belong to. Bridge positions count the residues as written; N and C are the ends. Peptide text beside a SMILES is read from it.

Key:
[1] = target: T1, trypsin (Bos taurus, UniProt P00760); assay: in vitro
T1 sequence (P00760 24-246): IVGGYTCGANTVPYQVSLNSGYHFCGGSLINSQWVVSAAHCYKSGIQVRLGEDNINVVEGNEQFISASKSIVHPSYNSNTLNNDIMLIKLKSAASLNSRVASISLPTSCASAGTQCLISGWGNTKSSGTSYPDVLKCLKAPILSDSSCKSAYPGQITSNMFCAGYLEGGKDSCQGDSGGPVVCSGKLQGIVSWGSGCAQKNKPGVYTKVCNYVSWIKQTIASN
Outline: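 Peptides were preincubated for 5 min at 37 °C and then digested with 0.05 μg/μL trypsin solution (stock). Remaining intact peptide was quantified as RP-HPLC peak area.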

[2] = target: chymotrypsin (Bos taurus, UniProt P00766); assay: in vitro; details: for Remaining peak area (%)/chymotrypsin: 0 h; for remaining at 0.025 h, 60 μM / remaining at 0.05 h, 60 μM / remaining at 0.075 h, 60 μM / remaining at 0.1 h, 60 μM / remaining at 0.15 h, 60 μM / remaining at 0.25 h, 60 μM / remaining at 0.5 h, 60 μM / remaining at 1 h, 60 μM: isolated enzyme chymotrypsin, pH 7.8, Remaining peak area (%)/chymotrypsin
Outline: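 Peptide and 0.05 μg/μL chymotrypsin were preincubated at 37 °C for 5 min, then mixed. Aliquots taken from 1.5 up to 60.0 min were quenched with 10% TFA, and remaining peptide was measured as RP-HPLC peak area.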

[3] = target: elastase (Sus scrofa, UniProt P00772); assay: in vitro
Experimental: FIG. 19. […] At different time point, 25 μL aliquots was taken out, and 10% (v/v) TFA was added to terminate the reaction.
(§1) Mix by centrifugation at 8000 rpm for 30 seconds.
Arrange a certain volume of 0.5 μg/μL elastase solution in another sterile EP. Incubate the EP tubes containing peptides and enzymes at 37° C. for 5 min, and then add 4.5 μL of elastase solution to each EP tube containing peptides and mix well. Start timing and remove 25 μL of reaction solution at 1.5, 3.0, 4.5, 6.0, 9.0, 15.0, 30.0, and 60.0 min later, respectively. Add 3.75 μL of 10% TFA to terminate the reaction and mix well by centrifugation at 8000 rpm for 30 seconds.
Referring to the experimental method in Example 5, in vitro stability of salmon Calcitonin analogs with oral administration activity to the enzymatic hydrolysis by trypsin, chymotrypsin and elastase were performed.
Referring to the experimental method in Example 5, in vitro stability of IL-17A inhibitory peptides towards the enzymatic hydrolysis by trypsin, chymotrypsin and elastase were performed.

[4] = target: DPP-IV (Homo sapiens, UniProt P27487); assay: Tolerance of GLP-1 and its analogues to DPP-IV (RP-HPLC remaining peak area); type: in vitro ADME; details: peptide 25 μM, DPP-IV 0.5 ng/μL, 37° C.
Experimental: as §1
(2) Arrange a certain volume of 0.005 μg/μL DPP-IV solution in another sterile EP.

[5] = target: NEP24.11 (Homo sapiens, UniProt P08473); assay: Tolerance of GLP-1 and its analogues to NEP24.11 (RP-HPLC remaining peak area); type: in vitro ADME; details: peptide 30 μM, NEP24.11 1.0 ng/μL, 37° C.
Experimental: as §1
Arrange a certain volume of 0.04 μg/μL NEP24.11 enzyme solution in another sterile EP.

[6] = Stability of GLP-1 and its analogues in human serum; details: 25% (v/v) human serum
[7] = isolated enzyme trypsin, pH 7.8

elastase, sequence (P00772 27-266): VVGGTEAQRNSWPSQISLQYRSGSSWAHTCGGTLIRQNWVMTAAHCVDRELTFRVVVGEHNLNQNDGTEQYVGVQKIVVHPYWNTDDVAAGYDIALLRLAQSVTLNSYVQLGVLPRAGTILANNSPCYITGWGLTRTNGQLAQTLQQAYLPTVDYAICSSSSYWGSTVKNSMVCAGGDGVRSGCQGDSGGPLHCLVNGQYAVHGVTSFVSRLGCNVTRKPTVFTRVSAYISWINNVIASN
NEP24.11, sequence (P08473 whole entry): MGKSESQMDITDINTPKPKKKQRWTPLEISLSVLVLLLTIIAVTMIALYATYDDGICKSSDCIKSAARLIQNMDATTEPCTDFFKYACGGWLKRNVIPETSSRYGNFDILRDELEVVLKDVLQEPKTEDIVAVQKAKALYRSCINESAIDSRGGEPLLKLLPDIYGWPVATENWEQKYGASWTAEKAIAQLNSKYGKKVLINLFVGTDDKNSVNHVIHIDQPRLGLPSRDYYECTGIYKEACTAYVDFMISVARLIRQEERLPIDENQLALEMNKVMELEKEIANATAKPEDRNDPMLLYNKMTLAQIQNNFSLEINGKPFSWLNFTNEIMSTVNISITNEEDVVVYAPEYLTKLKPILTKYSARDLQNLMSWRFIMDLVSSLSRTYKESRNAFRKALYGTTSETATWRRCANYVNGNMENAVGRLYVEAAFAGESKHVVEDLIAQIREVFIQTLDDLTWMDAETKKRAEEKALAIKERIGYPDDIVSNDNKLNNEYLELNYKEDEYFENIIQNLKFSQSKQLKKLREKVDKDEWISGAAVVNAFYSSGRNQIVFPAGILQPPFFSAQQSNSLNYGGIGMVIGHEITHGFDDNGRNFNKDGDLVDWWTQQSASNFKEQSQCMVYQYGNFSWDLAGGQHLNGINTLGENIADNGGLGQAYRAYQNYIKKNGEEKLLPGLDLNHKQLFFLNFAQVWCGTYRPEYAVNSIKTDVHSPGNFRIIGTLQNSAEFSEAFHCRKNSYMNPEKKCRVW
DPP-IV, sequence (P27487 whole entry, species assumed): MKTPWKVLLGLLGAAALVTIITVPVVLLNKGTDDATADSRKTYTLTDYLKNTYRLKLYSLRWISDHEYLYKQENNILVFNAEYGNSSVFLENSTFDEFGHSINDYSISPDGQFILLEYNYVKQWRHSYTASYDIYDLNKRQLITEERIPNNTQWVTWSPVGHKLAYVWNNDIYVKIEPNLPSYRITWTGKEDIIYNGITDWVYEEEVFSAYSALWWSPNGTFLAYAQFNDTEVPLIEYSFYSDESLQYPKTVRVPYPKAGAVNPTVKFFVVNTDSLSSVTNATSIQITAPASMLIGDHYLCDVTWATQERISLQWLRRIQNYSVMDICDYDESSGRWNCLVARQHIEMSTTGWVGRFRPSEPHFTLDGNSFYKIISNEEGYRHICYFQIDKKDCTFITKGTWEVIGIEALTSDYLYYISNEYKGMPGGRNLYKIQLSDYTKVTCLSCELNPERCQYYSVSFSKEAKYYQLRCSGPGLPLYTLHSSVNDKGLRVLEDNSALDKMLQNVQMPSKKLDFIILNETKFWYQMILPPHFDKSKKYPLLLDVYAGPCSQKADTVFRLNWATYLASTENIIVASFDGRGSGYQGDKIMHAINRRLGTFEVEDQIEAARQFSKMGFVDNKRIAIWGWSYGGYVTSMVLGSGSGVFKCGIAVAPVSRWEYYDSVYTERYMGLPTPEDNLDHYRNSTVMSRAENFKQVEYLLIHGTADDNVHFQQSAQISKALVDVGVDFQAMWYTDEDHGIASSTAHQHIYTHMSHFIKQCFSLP

stability towards trypsin hydrolysis (in words) [1]: very stable towards trypsin
Remaining peak area (%)/chymotrypsin [2]: 100.0 ± 0.0%
remaining at 0.025 h, 60 μM [2]: 68.8 ± 5.5%
remaining at 0.05 h, 60 μM [2]: 59.2 ± 6.3%
remaining at 0.075 h, 60 μM [2]: 46.2 ± 5.2%
remaining at 0.1 h, 60 μM [2]: 41.4 ± 4.5%
remaining at 0.15 h, 60 μM [2]: 24.3 ± 1.2%
Compound: CC[C@H](C)[C@H](N)C(=O)N[C@@H](Cc1c[nH]cn1)C(=O)N[C@H](C(=O)N[C@H](C(=O)N[C@H](C(=O)N1CCC[C@H]1C(=O)N[C@@H](C)C(=O)N[C@@H](CC(=O)O)C(=O)N[C@@H](CC(C)C)C(=O)N[C@@H](Cc1c[nH]c2ccccc12)C(=O)N[C@@H](CC(=O)O)C(=O)N[C@@H](Cc1c[nH]c2ccccc12)C(=O)N[C@H](C(=O)N[C@@H](CC(N)=O)C(=O)O)[C@@H](C)CC)[C@@H](C)CC)[C@@H](C)O)C(C)C [17A, reference compound]
stability towards chymotrypsin hydrolysis (in words) [2]: unstable towards chymotrypsin and elastase
stability towards elastase hydrolysis (in words) [3]: unstable towards chymotrypsin and elastase

Remaining peak area (%)/chymotrypsin [2]: 100.0 ± 0.0%
remaining at 0.025 h, 60 μM [2]: 85.5%
remaining at 0.05 h, 60 μM [2]: 93.8 ± 2.4%
remaining at 0.075 h, 60 μM [2]: 89.6%
remaining at 0.1 h, 60 μM [2]: 91.6 ± 5.3%
remaining at 0.25 h, 60 μM [2]: 79.8 ± 2.6%
remaining at 0.5 h, 60 μM [2]: 80.9%
remaining at 1 h, 60 μM [2]: 68%
Compound: CC[C@H](C)[C@H](N)C(=O)N[C@@H](Cc1c[nH]cn1)C(=O)N[C@H](C(=O)N[C@H](C(=O)N[C@H](C(=O)N1CCC[C@H]1C(=O)N[C@@H](C)C(=O)N[C@@H](CC(=O)O)C(=O)N[C@@H](CC(C)C)C(=O)N[C@@H](Cc1c[nH]c2ccccc12)C(=O)N[C@@H](CC(=O)O)C(=O)N[C@@H](Cc1c[nH]c2ccccc12)C(=O)N[C@H](C(=O)N[C@@H](CC(N)=O)C(=O)NCC(=O)N[C@H](C(=O)N[C@H]1CSSC[C@@H](C(=O)N[C@@H](CCC(N)=O)C(=O)O)NC(=O)[C@H]([C@@H](C)CC)NC(=O)[C@@H]2CCCN2C(=O)[C@@H]2CCCN2C(=O)[C@H]([C@@H](C)CC)NC(=O)[C@H](CO)NC(=O)[C@H](C)NC(=O)[C@H]([C@@H](C)O)NC1=O)[C@@H](C)CC)[C@@H](C)CC)[C@@H](C)CC)[C@@H](C)O)C(C)C [17A-EC] (H-IHVTIPADLWDWINGICTASIPPICQ-OH; disulfide 17-25)
stability towards elastase hydrolysis (in words) [3]: tolerated to the degradation of corresponding serine proteases

Compound: CC[C@H](C)[C@H](NC(=O)CNC(=O)[C@@H]1CCCN1C(=O)[C@@H](NC(=O)CNC(=O)[C@H](CO)NC(=O)CNC(=O)[C@@H](NC(=O)[C@H](CC(N)=O)NC(=O)[C@@H](NC(=O)[C@H](CCCNC(=N)N)NC(=O)[C@@H]1CCCN1C(=O)[C@H](Cc1ccc(O)cc1)NC(=O)[C@@H](NC(=O)[C@H](CCC(N)=O)NC(=O)[C@H](CC(C)C)NC(=O)[C@H](CCCCN)NC(=O)[C@H](Cc1c[nH]cn1)NC(=O)[C@H](C)NC(=O)[C@H](CCC(=O)O)NC(=O)[C@H](CCC(N)=O)NC(=O)[C@H](CO)NC(=O)[C@H](CC(C)C)NC(=O)[C@H](CCCCN)NC(=O)CNC(=O)[C@H](CC(C)C)NC(=O)CNC(=O)[C@@H]1CSSC[C@H](N)C(=O)N[C@@H](CO)C(=O)N[C@@H](CC(N)=O)C(=O)N[C@@H](CC(C)C)C(=O)N[C@@H](CO)C(=O)N[C@@H]([C@@H](C)O)C(=O)N1)[C@@H](C)O)[C@@H](C)O)[C@@H](C)O)[C@@H](C)O)C(=O)N[C@H]1CSSC[C@@H](C(=O)N[C@@H](CCC(N)=O)C(=O)O)NC(=O)[C@H]([C@@H](C)CC)NC(=O)[C@@H]2CCCN2C(=O)[C@@H]2CCCN2C(=O)[C@H]([C@@H](C)CC)NC(=O)[C@H](CO)NC(=O)[C@H](C)NC(=O)[C@H]([C@@H](C)O)NC1=O [Cal-EC]
stability towards chymotrypsin hydrolysis (in words) [2]: certain tolerance to chymotrypsin
Remaining peak area (%)/chymotrypsin [2]: 100.0 ± 0.0%
remaining at 0.025 h, 60 μM [2]: 95.4%
remaining at 0.05 h, 60 μM [2]: 31.3%
remaining at 0.1 h, 60 μM [2]: 29.3 ± 1.4%
remaining at 0.15 h, 60 μM [2]: 27.8 ± 0.2%
remaining at 0.25 h, 60 μM [2]: 22.3%
remaining at 0.5 h, 60 μM [2]: 21.4%
remaining at 1 h, 60 μM [2]: 19.3%
stability towards elastase hydrolysis (in words) [3]: resistant to the corresponding protease degradation

remaining at 0.025 h, 60 μM [1, 7]: 90.3 ± 1.9%
remaining at 0.05 h, 60 μM [1, 7]: 92.2 ± 3.7%
remaining at 0.075 h, 60 μM [1, 7]: 97.3 ± 1%
remaining at 0.1 h, 60 μM [1, 7]: 94 ± 1.5%
remaining at 0.15 h, 60 μM [1, 7]: 94.9 ± 1.8%
remaining at 0.25 h, 60 μM [1, 7]: 88.7 ± 3%
remaining at 0.5 h, 60 μM [1, 7]: 90.8 ± 3.6%
remaining at 1 h, 60 μM [1, 7]: 88.4 ± 3.9%
remaining at 0.025 h, 60 μM [2]: 54.9 ± 3.8%
remaining at 0.05 h, 60 μM [2]: 43.3 ± 7%
remaining at 0.075 h, 60 μM [2]: 34.5 ± 7.4%
remaining at 0.1 h, 60 μM [2]: 27.1 ± 2.9%
remaining at 0.15 h, 60 μM [2]: 17.4 ± 4.9%
Remaining peak area (%)/human serum ([6]; 0.0 h, peptide 0.03 mM, 37° C.): 100.0 ± 0.0%
serum stability (in words) [6]: good serum stability
remaining at 0.5 h, 0.03 mM ([6]; human, pH 7): 80.4 ± 4%
remaining at 2 h, 0.03 mM ([6]; human, pH 7): 53.6 ± 7.6%
remaining at 4 h, 0.03 mM ([6]; human, pH 7): 46.5 ± 3.5%
remaining at 8 h, 0.03 mM ([6]; human, pH 7): 7.2 ± 1.3%
remaining at 12 h, 0.03 mM ([6]; human, pH 7): 9.1 ± 3.9%
Compound: CC[C@H](C)[C@H](NC(=O)[C@H](Cc1ccccc1)NC(=O)[C@H](CCC(=O)O)NC(=O)[C@H](CCCCN)NC(=O)[C@H](C)NC(=O)[C@H](C)NC(=O)[C@H](CCC(N)=O)NC(=O)CNC(=O)[C@H](CCC(=O)O)NC(=O)[C@H](CC(C)C)NC(=O)[C@H](Cc1ccc(O)cc1)NC(=O)[C@H](CO)NC(=O)[C@H](CO)NC(=O)[C@@H](NC(=O)[C@H](CC(=O)O)NC(=O)[C@H](CO)NC(=O)[C@@H](NC(=O)[C@H](Cc1ccccc1)NC(=O)[C@@H](NC(=O)CNC(=O)[C@H](CCC(=O)O)NC(=O)[C@H](C)NC(=O)[C@H](Cc1c[nH]cn1)NC(=O)CNC(=O)CNC(=O)[C@@H](NC(=O)[C@@H]1CCCN1C(=O)[C@@H](NC(=O)CN)[C@@H](C)CC)[C@@H](C)CC)[C@@H](C)O)[C@@H](C)O)C(C)C)C(=O)N[C@@H](C)C(=O)N[C@@H](Cc1c[nH]c2ccccc12)C(=O)N[C@@H](CC(C)C)C(=O)N[C@H](C(=O)N[C@@H](CCCCN)C(=O)NCC(=O)N[C@@H](CCCNC(=N)N)C(=O)NCC(=O)NCC(=O)N[C@@H](CCCCN)C(=O)NCC(=O)N[C@H]1CSSC[C@@H](C(=O)N[C@@H](Cc2ccccc2)C(=O)O)NC(=O)[C@H]([C@@H](C)CC)NC(=O)[C@@H]2CCCN2C(=O)[C@@H]2CCCN2C(=O)[C@H]([C@@H](C)CC)NC(=O)[C@H](CO)NC(=O)[C@H](CCCCN)NC(=O)[C@H]([C@@H](C)O)NC(=O)[C@H](C)NC(=O)[C@H](CCCNC(=N)N)NC(=O)CNC1=O)C(C)C [D-GLP-1-BT9]
Remaining peak area (%)/DPP-IV ([4]; 0.0 h): 100.0 ± 0.0%
remaining at 0.5 h, 25 μM ([4]; isolated DPP-IV enzyme in buffer, pH 8, 0.5 h): 101 ± 1.2%
remaining at 2 h, 25 μM ([4]; isolated DPP-IV enzyme in buffer, pH 8, 2.0 h): 98.7 ± 0.6%
remaining at 4 h, 25 μM ([4]; isolated DPP-IV enzyme in buffer, pH 8, 4.0 h): 98.8 ± 2.3%
remaining at 8 h, 25 μM ([4]; isolated DPP-IV enzyme in buffer, pH 8, 8.0 h): 100 ± 6.5%
remaining at 12 h, 25 μM ([4]; isolated DPP-IV enzyme in buffer, pH 8, 12.0 h): 94 ± 2%
Remaining peak area (%)/NEP24.11 ([5]; 0.0 h): 100.0 ± 0.0%
remaining at 0.5 h, 30 μM ([5]; isolated NEP24.11 enzyme in buffer, pH 7.4, 0.5 h): 88.4 ± 2.3%
remaining at 2 h, 30 μM ([5]; isolated NEP24.11 enzyme in buffer, pH 7.4, 2.0 h): 79.3 ± 2.6%
remaining at 4 h, 30 μM ([5]; isolated NEP24.11 enzyme in buffer, pH 7.4, 4.0 h): 69.8 ± 2.6%
remaining at 8 h, 30 μM ([5]; isolated NEP24.11 enzyme in buffer, pH 7.4, 8.0 h, read-out: Remaining peak area (%)/NEP24.11): 58.6 ± 0.7%
